According to US20050049206A1, “Compositions of flavonoids and flavonoid-containing extracts and the treatment of diseases” (priority 2003, published 2005):
“Also recorded” adds a separate entry of the source. Read-outs that look alike come from different tables or passages of the source.

Legend:
[1] = test system: pulmonary fibrosis in bleomycin-induced rats; experiment: Histopathological / morphologic examination of lungs in bleomycin-induced pulmonary fibrosis rats; assay type: in vivo, Sprague-Dawley rats; settings: for Alveolitis Score 0 (number of rats) / Alveolitis Score I (number of rats) / Alveolitis Score II (number of rats) / Alveolitis Score III (number of rats) / Pulmonary Fibrosis Score 0 (number of rats) / Pulmonary Fibrosis Score I (number of rats) / Pulmonary Fibrosis Score II (number of rats) / Pulmonary Fibrosis Score III (number of rats): BL-instilled rats, day 28, n=10; for pulmonary anti-fibrotic activity: animal experiments (rats)
Acute toxicity (LD50) = settings: in vivo
[2] = test system: pulmonary fibrosis in bleomycin-induced rats; experiment: Assays of bronchoalveolar lavage fluid in bleomycin-induced pulmonary fibrosis rats; assay type: in vivo, Sprague-Dawley rats; settings: BL-instilled rats, day 28, n=10
[3] = test system: CCl4-induced liver cirrhosis in rats; experiment: Hepatic cirrhosis in CCl4-induced rats; assay type: in vivo, Sprague-Dawley rats; settings: for ALT decrease / AST decrease: serum, 450 mg/kg by gavage for 3 weeks after 8 weeks CCl4, P<0.001 (FIG. 10)
Excerpt: Animals and method of baicalin dosing: Fibrosis was induced by chronic CCl4 administration to rats. Sprague-Dawley rats weighing 200-240 g received three doses a week i.p. of a mixture 1:6 of CCl4-mineral oil for the first week; then the second week the ratio was 1:5, the third week 1:4, and the 4th-8th weeks the ratio was 1:3 [Armendariz Biochim Biophys Acta 1997;1353:241-252, Armendariz Hepatology 1991;14:895-900.]. CCl4 intoxication was stopped and cirrhotic animals were then fed by gavage either with the baicalin (n=10) at the dosage of 450 mg/kg or saline (n=10) as a control for 3 more weeks.
Statistical analysis: Results relative to the number of experiments indicated, are expressed as mean ±SD. Statistical analyses were perfomed using Student's t-test.
Preparation of liver homogenates: Rats were killed at indicated times and liver homogenates were prepared from 150 mg of tissue as described [Gao Hum Gene Ther 1999;10:911-922.] and kept at −70° C. At the same time, serum samples were obtained and kept at −20° C. until used. Total protein levels in serum were determined using Bradford assay of protein quantification [Bradford Anal Biochem 1976;72:248-254.].
Biochemical assays: Blood was drawn from control and experimental cirrhotic animals at the moment of sacrifice and serum transaminases alanine aminotransferase (ALT), aspartate aminotransferase (AST) and alkaline phosphatase (ALP) were determined in an automated Sincron-7 machine.
Hydroxyproline content biochemical determinations: Liver samples were obtained at the moment of sacrifice and 150 mg were subjected to acid hydrolysis to determine the amount of hydroxyproline according to Rojkind and coworkers [Rojkind Anal Biochem 1974; 57:1-7].

[4] = baicalein by gavage once a day (350 or 450 mg/kg/day)
[5] = baicalin 450 mg/kg/day by gavage

**Q.** Which “Alveolitis Score 0 (number of rats)” value ([1]; baicalein by gavage once a day) does the source give for `O=c1cc(-c2ccccc2)oc2cc(O)c(O)c(O)c12` [Baicalein, 5,6,7-Trihydroxy-2-phenyl-4H-chromen-4-one] here?
**A.** Its value is 0.

**Q.** What about the “Alveolitis Score I (number of rats)” value ([1]; baicalein by gavage once a day) of the same molecule?
**A.** The value was 8.

**Q.** What about the “Alveolitis Score II (number of rats)” value ([1]; baicalein by gavage once a day) of the same molecule?
**A.** The value was 2.

**Q.** What about the “Alveolitis Score III (number of rats)” value ([1]; baicalein by gavage once a day) of the same molecule?
**A.** The value was 0.

**Q.** What about the “Pulmonary Fibrosis Score 0 (number of rats)” value ([1]; baicalein by gavage once a day) of the same molecule?
**A.** Its value is 0.

**Q.** And the “Pulmonary Fibrosis Score I (number of rats)” value ([1]; baicalein by gavage once a day)?
**A.** Its value is 7.

**Q.** And the “Pulmonary Fibrosis Score II (number of rats)” value ([1]; baicalein by gavage once a day)?
**A.** Its value is 3.

**Q.** And the “Pulmonary Fibrosis Score III (number of rats)” value ([1]; baicalein by gavage once a day)?
**A.** Its value is 0.

**Q.** And the pulmonary anti-fibrotic activity [1]?
**A.** The pulmonary anti-fibrotic activity was “dramatic and novel pulmonary anti-fibrotic activity”.

**Q.** What about the “extracellular fibers and mononuclear cell alveolitis of lungs compared with the BL group” value ([1]; baicalein by gavage, BL-rat model) of the same molecule?
**A.** The value was “considerably less extracellular fibers and mononuclear cell alveolitis”.

**Q.** And the “fibrotic score (lung)” value ([1]; oral baicalein, BL-induced rats)?
**A.** The value was “dramatic effect”.

**Q.** What about the LD50 (Acute toxicity (LD50)) of the same molecule?
**A.** The LD50 was 11000 mg/kg.

**Q.** What about the acute toxicity (Acute toxicity (LD50)) of the same molecule?
**A.** The acute toxicity was “about 11 g/kg body weight”.

**Q.** And the LD50 (Acute toxicity (LD50); read-out: LD50)?
**A.** The LD50 was 14000 mg/kg.

**Q.** What about the LDH [2, 4] of the same molecule?
**A.** The LDH was 1389.61 ± 526.34 U/L.

**Q.** What about the Mononuclear cells [2, 4] of the same molecule?
**A.** Its Mononuclear cells is 501.0 ± 310.2 ×10^4/ml.

**Q.** And the Protein [2, 4]?
**A.** The Protein was 1.95 ± 0.35 g/L.

**Q.** With `O=C(O)[C@H]1O[C@@H](Oc2cc3oc(-c4ccccc4)cc(=O)c3c(O)c2O)[C@H](O)[C@@H](O)[C@@H]1O` [Baicalin, (2S,3S,4S,5R,6S)-6-(5,6-dihydroxy-4-oxo-2-phenyl-4H-chromen-7-yloxy)-tetrahydro-3,4,5-trihydroxy-2H-pyran-2-carboxylic acid] as the molecule, how does the “Alveolitis Score 0 (number of rats)” value [1, 5] read?
**A.** The value was 0.

**Q.** What about the “Alveolitis Score I (number of rats)” value [1, 5] of the same molecule?
**A.** Its value is 7.

**Q.** And the “Alveolitis Score II (number of rats)” value [1, 5]?
**A.** The value was 3.

**Q.** And the “Alveolitis Score III (number of rats)” value [1, 5]?
**A.** The value was 0.

**Q.** And the “Pulmonary Fibrosis Score 0 (number of rats)” value [1, 5]?
**A.** The value was 0.

**Q.** What about the “Pulmonary Fibrosis Score I (number of rats)” value [1, 5] of the same molecule?
**A.** The value was 6.

**Q.** And the “Pulmonary Fibrosis Score II (number of rats)” value [1, 5]?
**A.** The value was 4.

**Q.** What about the “Pulmonary Fibrosis Score III (number of rats)” value [1, 5] of the same molecule?
**A.** Its value is 0.

**Q.** And the pulmonary anti-fibrotic activity [1]?
**A.** The pulmonary anti-fibrotic activity was “dramatic and novel pulmonary anti-fibrotic activity”.

**Q.** What about the “lung lesions (morphology) compared with the BL group” value ([1]; baicalin-treated BL-induced rats, day 28, HE staining) of the same molecule?
**A.** The value was “of a more mild nature than that of the BL group; also recorded: considerably less extracellular fibers and mononuclear cell alveolitis; also recorded: of a more mild nature than those of the BL group”.

**Q.** And the “fibrotic index (lung)” value ([1]; oral baicalin, BL-induced rats)?
**A.** Its value is “dramatic effect”.

**Q.** And the acute toxicity (Acute toxicity (LD50))?
**A.** Its acute toxicity is about 14 g/kg body weight.

**Q.** What about the LD50 (Acute toxicity (LD50); read-out: LD50) of the same molecule?
**A.** Its LD50 is 11000 mg/kg.

**Q.** What about the “macroscopic view of cirrhotic livers, treated vs non-treated” value ([3]; 450 mg/kg baicalin, n=10, P<0.001 (FIG. 8)) of the same molecule?
**A.** The value was “remarkable differences in the entire granular texture of the liver”.

**Q.** And the “hydroxyproline level of liver (relative collagen content per g of liver) vs non-treated” value ([3]; baicalin 450 mg/kg by gavage for 3 weeks after 8 weeks CCl4, P<0.05 (FIG. 9))?
**A.** Its value is “significantly lower”.

**Q.** And the “liver fibrosis reduction as compared with saline controls” value ([3]; baicalin 450 mg/kg daily by gavage for 3 weeks after 8 weeks CCl4, n=10)?
**A.** The value was 40%.

**Q.** And the “fibrotic index (liver)” value ([3]; oral baicalin 450 mg/kg, CCl4 rats (FIG. 8))?
**A.** Its value is “dramatic effect”.

**Q.** And the ALT decrease [3]?
**A.** Its ALT decrease is “over 2 fold”.

**Q.** And the AST decrease [3]?
**A.** Its AST decrease is “over 3 fold”.

**Q.** What about the LDH [2, 5] of the same molecule?
**A.** The LDH was 1331.61 ± 516.68 U/L.

**Q.** And the Mononuclear cells [2, 5]?
**A.** The Mononuclear cells was 465.0 ± 320.2 ×10^4/ml.

**Q.** What about the Protein [2, 5] of the same molecule?
**A.** The Protein was 1.85 ± 0.52 g/L.

**Q.** Which results are given for `Cc1ccc(=O)n(-c2ccccc2)c1` [Pirfenidone, reference compound]?
**A.** ALT decrease [3]: over 2 fold; AST decrease [3]: over 3 fold
